These results are taken from patent US5700819A, “2-substituted benzothiazole derivatives and prophylactic and therapeutic agents for the treatment of diabetic complications” (Grelan Pharmaceutical Co., Ltd., priority 1994, dated 1997).

The test system of data set [1] is Normal ICR mice. Nature of the data set: Safety Study. It is filed as in vivo. As to conditions: 1000 mg/kg oral, single dose; observed 7 days; male ICR mice, 5/group. The procedure: The safety of the compounds of the present invention was confirmed according to the following experimental procedure.
Normal ICR mice (male, 7-week-old, 5 mice/group), fasted for 18 hours, received orally the compound each of Examples 1-ii), 5-ii), 19-ii), 21, 22-ii) and 23-ii) suspended in 0.5% carboxymethyl cellulose at a dose of 1000 mg/kg. Control groups received only 0.5% carboxymethyl cellulose orally. […] The mice were fed with diet and water ad libitum during the experiment.

The subject of data set [2] is sorbitol accumulation in tissues (sciatic nerve, lens) of experimental diabetic rats. Nature of the data set: Inhibitory Effect on Sorbitol Accumulation in the Tissues of Experimental Diabetic Rats (Prophylactic effect). It is filed as in vivo, Sprague-Dawley rats. To be noted: control = 100%, ** P < 0.01 (Tukey); for Sorbitol Accumulation, Nerve: sciatic nerve. The procedure:
2) Inhibitory Effect on Sorbitol Accumulation in the Tissues of Experimental Diabetic Rats (Prophylactic effect)
Sprague-Dawley rats (male, 6-week-old, 5-6 rats/group), fasted for 18 hours, were made diabetic by a single intravenous (tail vein) injection of 60 mg/kg body weight of streptozotocin (Sigma). Four, eight and twenty four hours after the injection of streptozotocin, respectively, a sample compound suspended in 0.5% carboxymethyl cellulose was administered orally to the rats at a dose of 10 or 30 mg/kg. The rats were fed with diet and water ad libitum during the experiment. Three hours after the final administration, the sorbitol contents in the tissues (sciatic nerve, lens) was assayed enzymatically using SDH (sorbitol dehydrogenase) and NAD (β-nicotinamide adenine dinucleotide) according to the method by H. U. Bergmeyer et al. (Methods of Enzymatic Analysis, 3, p. 1323-1330 (1974)). The sorbitol contents in control groups to which 0.5% carboxymethyl cellulose was administered instead of sample compounds is expressed as 100%.

Data set [3] has the same test system. Nature of the data set: Inhibitory Effect on Sorbitol Accumulation in the Tissues of Experimental Diabetic Rats (Therapeutic Effect). It is filed as in vivo, Sprague-Dawley rats. As to conditions: 5 days, from 7 days after streptozotocin, control = 100%, ** P < 0.01 (Tukey); for Sorbitol Accumulation, Nerve: sciatic nerve. The procedure:
4) Inhibitory Effect on Sorbitol Accumulation in the Tissues of Experimental Diabetic Rats (Therapeutic Effect)
Sprague-Dawley rats (male, 6-week-old, 5 to 6 rats/group), fasted for 18 hours, were made diabetic by injecting streptozotocin (Sigma) at a dose of 60 mg/kg body weight into the tail vein thereof. From 7 days after the streptozotocin injection, a sample compound suspended in 0.5% carboxymethyl cellulose was administered orally to the rats at a dose between 1 and 10 mg/kg once daily for 5 consecutive days. The rats were fed with diet and water ad libitum during the experiment. Three hours after the final administration, the sorbitol contents in the tissues (sciatic nerve, lens) was assayed enzymatically using SDH (sorbitol dehydrogenase) and NAD (β-nicotinamide adenine dinucleotide) according to the method by H. U. Bergmeyer et al. (Methods of Enzymatic Analysis, 3, p. 1323-1330 (1974)). The sorbitol contents in control groups to which 0.5% carboxymethyl cellulose was administered instead of sample compounds is expressed as 100%.

Data set [4] has as its target T1, Aldose reductase (Sus scrofa, UniProt P80276).
T1 construct: Aldose reductase samples were prepared from porcine lens; from tissue; host or cells: porcine lens
Nature of the data set: Aldose Reductase Inhibition. It is filed as biochemical. As to conditions: porcine lens aldose reductase; DL-glyceraldehyde 3 mM, NADPH 0.1 mM, pH 6.2, 37° C. The procedure:
Aldose reductase samples were prepared from porcine lens according the method by S. Hayman et al., (Journal of Biological Chemistry, 240, p. 877-882 (1965)). In brief, lens of porcine eyes were frozen (-80° C.) until employed. These lenses were homogenized with distilled water and then centrifuged at 10,000×g for 15 minutes. The supernatant was fractionated with 0 to 40% ammonium sulfate and centrifuged at 10,000×g for 10 minutes. The resultant supernatant was dialyzed overnight against 0.05M sodium chloride. The dialyzed solution was used as an aldose reductase sample. (Assay of Enzymatic Activity) Aldose reductase activity was assayed according to the aforementioned method by S. Hayman et al. In brief, to 200 μl of 40 mM phosphate buffer (pH 6.2) containing lithium sulfate, 0.4M (final concentration); NADPH (reduced nicotinamide adenine dinucleotide phosphate), 0.1 mM (final concentration); and DL-glyceraldehyde as a substrate, 3 mM (final concentration) was added 25 μl of the aldose reductase solution obtained by the aforementioned method and 25 μl of 1% DMSO solutions containing a sample inhibitor compound with different concentrations. The mixtures were incubated at 37° C. for 2 minutes for reaction and changes in the absorbance at 340 nm were read using an auto-analyzer (Hitachi Corporation, Model 7070, Japan). The change in the absorbance of a mixed solution including 1% DMSO instead of sample compounds was expresses as 100%. […] IC50 (M) means the concentration of the compounds, required for 50% inhibition of aldose reductase activity.

[5] abbreviates: 30 mg/kg oral, 4, 8 and 24 h after streptozotocin.
Setting [6] is: 10 mg/kg oral, 4, 8 and 24 h after streptozotocin.

Turning to `Cc1cc(CC(=O)O)cc(Cc2nc3c(F)c(F)ccc3s2)c1` [23-ii), 3-[(4,5-difluorobenzothiazol-2-yl)methyl]-5-methylphenylacetic acid], in data set [1], the mortality entry is “No animal died”.
As to `O=C(O)Cc1cccc(Cc2nc3c(F)c(F)cc(F)c3s2)c1` [Example 1-ii), 3-[(4,5,7-trifluorobenzothiazol-2-yl)methyl]phenylacetic acid], in data set [2] (setting [5]), the “Sorbitol Accumulation, Lens” value is given as 4% and the “Sorbitol Accumulation, Nerve” value is reported as 0%. Also, in data set [3] (10 mg/kg oral once daily), the “Sorbitol Accumulation, Lens” value turned out to be 68% and the “Sorbitol Accumulation, Nerve” value is recorded as 2%. The IC50 (as a rule, the concentration at which inhibition is half-maximal) in data set [4] is 6.6 nM.
`CN(CC(=O)O)C(=O)CCc1nc2c(F)c(F)cc(F)c2s1` [Example 3-iii), N-[3-(4,5,7-trifluorobenzothiazol-2-yl)propionyl]-N-methylglycine] gave an IC50 in data set [4] of 13 nM.
On to `O=C(O)CN(C(=O)CCc1nc2c(F)c(F)cc(F)c2s1)c1ccccc1` [Example 4-ii), N-[3-(4,5,7-trifluorobenzothiazol-2-yl)propionyl]-N-phenylglycine], for which, in data set [2] (setting [5]), the “Sorbitol Accumulation, Lens” value was determined as 20% and the “Sorbitol Accumulation, Nerve” value was 46%. Besides, half-maximal inhibition in data set [4] (IC50) required 8.3 nM.
As to `O=C(O)CN(Cc1ccccc1)C(=O)CCc1nc2c(F)c(F)cc(F)c2s1` [Example 5-ii), N-benzyl-N-[3-(4,5,7-trifluorobenzothiazol-2-yl)propionyl]glycine], in data set [4], the IC50 was found to be 9.7 nM.
Still for that read-out and setting: next, `O=C(O)CN(Cc1ccccc1)C(=S)CCc1nc2c(F)c(F)cc(F)c2s1` [Example 8-ii), N-benzyl-N-[3-(4,5,7-trifluorobenzothiazol-2-yl)-1-thioxopropyl]glycine]: 23 nM; `O=C(O)CCCCSc1nc2c(F)c(F)cc(F)c2s1` [Example 15-ii), 5-(4,5,7-trifluorobenzothiazol-2-ylthio)pentanoic acid]: 14 nM; `O=C(O)Cc1cccc(Cc2nc3c(Cl)c(Cl)ccc3s2)c1` [Example 19-ii), 3-[(4,5-dichlorobenzothiazol-2-yl)methyl]phenylacetic acid]: 12 nM.
Regarding `O=C(O)Cc1ccccc1Cc1nc2c(F)c(F)cc(F)c2s1` [Example 20-ii), 2-[(4,5,7-trifluorobenzothiazol-2-yl)methyl]phenylacetic acid], in data set [2] (setting [6]), the “Sorbitol Accumulation, Lens” value is recorded as 63% and the “Sorbitol Accumulation, Nerve” value worked out at 15%. In data set [4], the IC50 was 19 nM.
For `O=C(O)Cc1cccc(Cc2nc3c(F)c(F)ccc3s2)c1` [Example 21, 3-[(4,5-difluorobenzothiazol-2-yl)methyl]phenylacetic acid], in that order: 40%, 0% and 6.7 nM.
As for `Cc1cc(CC(=O)O)cc(Cc2nc3c(F)c(F)cc(F)c3s2)c1` [Example 22-ii), 3-[(4,5,7-trifluorobenzothiazol-2-yl)methyl]-5-methylphenylacetic acid], in data set [2] (setting [6]), the “Sorbitol Accumulation, Lens” value is listed as 41% and the “Sorbitol Accumulation, Nerve” value is on record as 0%. In data set [3] (3 mg/kg oral once daily), the “Sorbitol Accumulation, Lens” value came out at 25% and the “Sorbitol Accumulation, Nerve” value is 2%. In data set [4], this compound came in with an IC50 of 9.6 nM.
With `O=C(O)Cc1cccc(Cc2nc3c(F)c(F)ccc3s2)c1Cl` [Example 24-ii), 3-[(4,5-difluorobenzothiazol-2-yl)methyl]-2-chlorophenylacetic acid], in data set [3] (10 mg/kg oral once daily), the “Sorbitol Accumulation, Lens” value is 26% and the “Sorbitol Accumulation, Nerve” value is 11%.
In the case of `O=C(O)Cc1cccc(Cc2nc3c(F)c(F)cc(F)c3s2)c1Cl` [Example 25-ii), 3-[(4,5,7-trifluorobenzothiazol-2-yl)methyl]-2-chlorophenylacetic acid], in data set [3] (1 mg/kg oral once daily), the “Sorbitol Accumulation, Lens” value worked out at 47% and the “Sorbitol Accumulation, Nerve” value was determined as 0%.
Take `O=C(O)Cc1cc(Br)cc(Cc2nc3c(F)c(F)cc(F)c3s2)c1` [Example 28-ii), 3-[(4,5,7-trifluorobenzothiazol-2-yl)methyl]-5-bromophenylacetic acid]: the IC50 in data set [4] stood at 9.4 nM.
On the same count and under the same terms, next, `O=C(O)Cc1cc(Cc2nc3c(F)c(F)cc(F)c3s2)cc(C(=O)O)c1` [Example 30-ii), 3-[(4,5,7-trifluorobenzothiazol-2-yl)methyl]-5-carboxymethylbenzoic acid]: 8.7 nM.
With `CN(C)c1cc(CC(=O)O)cc(Cc2nc3c(F)c(F)cc(F)c3s2)c1` [Example 31-ii), 3-[(4,5,7-trifluorobenzothiazol-2-yl)methyl]-5-dimethylaminophenylacetic acid], in data set [3] (3 mg/kg oral once daily), the “Sorbitol Accumulation, Lens” value is listed as 77% and the “Sorbitol Accumulation, Nerve” value was found to be 1%. In addition, in data set [4], half-maximal inhibition (IC50) was put at 6.7 nM.
`O=C(O)CN(C(=S)CCc1nc2c(F)c(F)cc(F)c2s1)c1ccccc1` [Example 32-ii), N-[3-(4,5,7-trifluorobenzothiazol-2-yl)-1-thioxopropionyl]-N-phenylglycine]: half-maximal inhibition in data set [4] (IC50) was put at 8.4 nM.
